The results in this text go back to ChEMBL document CHEMBL5576084, “Development of chromone-thiazolidine-2,4-dione Knoevenagel conjugates as apoptosis inducing agents” (Bioorg Med Chem Lett, 2024).

The subject of series [1] is A549. The experiment in a line: Induction of apoptosis in human A549 cells assessed as early apoptotic cells at 1.5 uM by Annexin V-FITC/PI staining based flow cytometric analysis (reference value: 0.32 %). The class given is functional.
Series [2] relates to A549. The experiment in a line: Induction of apoptosis in human A549 cells assessed as necrotic cells at 1.5 uM by Annexin V-FITC/PI staining based flow cytometric analysis (reference value: 0.46 %). It counts as functional.
Series [3] has as its system A549. The experiment in a line: Induction of apoptosis in human A549 cells assessed as increase in yellowish green intensity at 1.5 uM by acridine orange/EtBr staining based analysis. The class given is functional, cell-based.
The test system of series [4] is A549. The experiment in a line: Cytotoxicity against human A549 cells assessed as inhibition of cell growth. The class given is functional, cell-based.
Series [5] relates to A549. The experiment in a line: Induction of apoptosis in human A549 cells assessed as inhibition of Bcl-2 expression at 1.5 uM by PI staining based flow cytometric analysis relative to control. The class given is functional.
In series [6] the test system is A549. The experiment in a line: Induction of apoptosis in human A549 cells assessed as late apoptotic cells at 1.5 uM by Annexin V-FITC/PI staining based flow cytometric analysis (reference value: 0.19 %). It counts as functional.
In series [7] the test system is A549. The experiment in a line: Induction of apoptosis in human A549 cells assessed as increase in late apoptotic cells by measuring orange red signals at 1.5 uM by acridine orange/EtBr staining based analysis. The class given is functional, cell-based.
Series [8] concerns A549. The experiment in a line: Induction of apoptosis in human A549 cells assessed as reduction in green intensity at 1.5 uM by acridine orange/EtBr staining based analysis. It counts as functional, cell-based.
Series [9] has as its system A549. The experiment in a line: Induction of ROS generation in human A549 cells assessed as fold change at 1.5 uM by DCFDA-H2 fluorescent dye based flow cytometric analysis relative to control. The class given is functional.
Series [10] has as its system A549. The experiment in a line: Induction of apoptosis in human A549 cells assessed as increase in necrotic cells by measuring red signals at 1.5 uM by acridine orange/EtBr staining based analysis. It counts as functional, cell-based.
Series [11] has as its system A549. The experiment in a line: Cell cycle arrest in human A549 cells assessed as increase in G0/G1phase cell frequency at 1.5 uM by PI staining based flow cytometric analysis relative to control. The class given is functional.
For series [12], the system named is A549. The experiment in a line: Induction of DNA damage in human A549 cells assessed as decrease in green fluorescence at 3 to 9 uM by acridine orange/EtBr staining based analysis. The note with it: dose 3-9 µM. The class given is functional, cell-based.
Series [13] relates to MCF7. The experiment in a line: Cytotoxicity against human MCF7 cells assessed as inhibition of cell growth incubated for 48 hrs by MTT assay. The class given is functional, cell-based. The following applies: MCF7, 48 h.
In series [14] the test system is A549. The experiment in a line: Induction of ROS generation in human A549 cells assessed as fold change at 9 uM by DCFDA-H2 fluorescent dye based flow cytometric analysis relative to control. The class given is functional.
For series [15], the system named is A549. The experiment in a line: Induction of apoptosis in human A549 cells assessed as increase in late apoptotic cells by measuring orange red signals at 3 to 9 uM by acridine orange/EtBr staining based analysis. The following applies: dose 3-9 µM. It counts as functional, cell-based.
Series [16] concerns HepG2. The experiment in a line: Cytotoxicity against human HepG2 cells assessed as inhibition of cell growth incubated for 48 hrs by MTT assay. It counts as functional, cell-based. The following applies: HepG2, 48 h.
Series [17] has as its system A549. The experiment in a line: Induction of apoptosis in human A549 cells assessed as reduction in Bcl-2 expression at 9 uM by PI staining based flow cytometric analysis relative to control. The class given is functional. Further details: scale not given: the % may be the effect or the level left.
The test system of series [18] is A549. The experiment in a line: Induction of apoptosis in human A549 cells assessed as reduction in green intensity at 3 to 9 uM by acridine orange/EtBr staining based analysis. The following applies: dose 3-9 µM. The class given is functional, cell-based.
In series [19] the test system is A549. The experiment in a line: Cytotoxicity against human A549 cells assessed as inhibition of cell growth incubated for 48 hrs by MTT assay. The class given is functional, cell-based. The following applies: A549, 48 h.
Series [20] has as its system A549. The experiment in a line: Induction of apoptosis in human A549 cells assessed as late apoptotic cells at 6 uM by Annexin V-FITC/PI staining based flow cytometric analysis (reference value: 0.19 %). The class given is functional.
Series [21] deals with A549. The experiment in a line: Induction of apoptosis in human A549 cells assessed as late apoptotic cells at 3 uM by Annexin V-FITC/PI staining based flow cytometric analysis (reference value: 0.19 %). It counts as functional.
Series [22] has as its system A549. The experiment in a line: Cell cycle arrest in human A549 cells assessed as accumulation of cells at G2/M phase at 3 uM by PI staining based flow cytometric analysis (reference value: 11.5 %). The class given is functional.
The test system of series [23] is A549. The experiment in a line: Induction of apoptosis in human A549 cells assessed as reduction in Bcl-2 expression at 3 uM by PI staining based flow cytometric analysis relative to control. It counts as functional. The arrangement: scale not given: the % may be the effect or the level left.
For series [24], the system named is A549. The experiment in a line: Induction of ROS generation in human A549 cells assessed as fold change at 3 uM by DCFDA-H2 fluorescent dye based flow cytometric analysis relative to control. It counts as functional.
Series [25] has as its system A549. The experiment in a line: Induction of apoptosis in human A549 cells assessed as necrotic cells at 9 uM by Annexin V-FITC/PI staining based flow cytometric analysis (reference value: 0.46 %). It counts as functional.
Series [26] deals with A549. The experiment in a line: Induction of DNA damage in human A549 cells assessed as DNA condensation by measuring increase in fluorescence intensity at 3 to 9 uM by DAPI staining based fluorescence microscopic analysis. The class given is functional, cell-based. The note with it: dose 3-9 µM.
In series [27] the test system is A549. The experiment in a line: Cell cycle arrest in human A549 cells assessed as accumulation of cells at G2/M phase at 6 uM by PI staining based flow cytometric analysis (reference value: 11.5 %). The class given is functional.
The subject of series [28] is A549. The experiment in a line: Induction of apoptosis in human A549 cells assessed as early apoptotic cells at 9 uM by Annexin V-FITC/PI staining based flow cytometric analysis (reference value: 0.32 %). The class given is functional.
The subject of series [29] is A549. The experiment in a line: Induction of apoptosis in human A549 cells assessed as increase in necrotic cells by measuring red signals at 3 to 9 uM by acridine orange/EtBr staining based analysis. The note with it: dose 3-9 µM. It counts as functional, cell-based.
Series [30] relates to A549. The experiment in a line: Induction of apoptosis in human A549 cells assessed as appearance of shrunken cells with fragmented nucleus at 3 to 9 uM by DAPI staining based fluorescence microscopic analysis. The note with it: dose 3-9 µM. It counts as functional, cell-based.
The subject of series [31] is A549. The experiment in a line: Cell cycle arrest in human A549 cells assessed as accumulation of cells at G2/M phase at 9 uM by PI staining based flow cytometric analysis (reference value: 11.5 %). The class given is functional.
In series [32] the test system is A549. The experiment in a line: Induction of DNA damage in human A549 cells assessed as increase in red fluorescence at 3 to 9 uM by acridine orange/EtBr staining based analysis. The class given is functional, cell-based. The following applies: dose 3-9 µM.
The test system of series [33] is A549. The experiment in a line: Induction of apoptosis in human A549 cells assessed as necrotic cells at 3 uM by Annexin V-FITC/PI staining based flow cytometric analysis (reference value: 0.46 %). It counts as functional.
For series [34], the system named is A549. The experiment in a line: Induction of apoptosis in human A549 cells assessed as increase in yellowish green intensity at 3 to 9 uM by acridine orange/EtBr staining based analysis. The class given is functional, cell-based. The note with it: dose 3-9 µM.
Series [35] concerns A549. The experiment in a line: Induction of apoptosis in human A549 cells assessed as reduction in Bcl-2 expression at 6 uM by PI staining based flow cytometric analysis relative to control. It counts as functional. Further details: scale not given: the % may be the effect or the level left.
Series [36] has as its system A549. The experiment in a line: Induction of apoptosis in human A549 cells assessed as late apoptotic cells at 9 uM by Annexin V-FITC/PI staining based flow cytometric analysis (reference value: 0.19 %). It counts as functional.
Series [37] has as its system A549. The experiment in a line: Induction of apoptosis in human A549 cells assessed as necrotic cells at 6 uM by Annexin V-FITC/PI staining based flow cytometric analysis (reference value: 0.46 %). It counts as functional.
Series [38] concerns A549. The experiment in a line: Induction of ROS generation in human A549 cells assessed as fold change at 6 uM by DCFDA-H2 fluorescent dye based flow cytometric analysis relative to control. The class given is functional.
Series [39] concerns A549. The experiment in a line: Induction of apoptosis in human A549 cells assessed as early apoptotic cells at 6 uM by Annexin V-FITC/PI staining based flow cytometric analysis (reference value: 0.32 %). It counts as functional.
In series [40] the test system is HCT-116. The experiment in a line: Cytotoxicity against human HCT-116 cells assessed as inhibition of cell growth incubated for 48 hrs by MTT assay. The note with it: HCT-116, 48 h. The class given is functional, cell-based.
Series [41] relates to A549. The experiment in a line: Induction of apoptosis in human A549 cells assessed as early apoptotic cells at 3 uM by Annexin V-FITC/PI staining based flow cytometric analysis (reference value: 0.32 %). The class given is functional.
Series [42] concerns SK-MEL-28. The experiment in a line: Cytotoxicity against human SK-MEL-28 cells assessed as inhibition of cell growth incubated for 48 hrs by MTT assay. It counts as functional, cell-based. The note with it: SK-MEL-28, 48 h.
Series [43] can be described thus: Cytotoxicity against HEK293 cells assessed as inhibition of cell growth incubated for 48 hrs by MTT assay. The class given is toxicity, cell-based. The note with it: human.

Structures are written as SMILES. Activity calls are given as the source filed them. The rule behind the calls is not given here.

`CC1(C)CCC(CN2CCN(c3ccc(C(=O)NS(=O)(=O)c4ccc(NCC5CCOCC5)c([N+](=O)[O-])c4)c(Oc4cnc5[nH]ccc5c4)c3)CC2)=C(c2ccc(Cl)cc2)C1` [VENETOCLAX]: the Activity in series [1] amounted to 1.5%; in series [2], 5.5%; in series [6], 4.9%; in [11], 6.9%. Besides, the outcome in series [3], in series [7], in series [8] and in series [10] was Active. Besides, in series [4], the IC50 amounted to 1.5 µM. Moreover, the inhibition at 1.5 µM in [5] amounted to 61.7%. Besides, the “fold change (FC)” value in [9] came to 9.53.
As to `COc1ccc(C(=O)CN2C(=O)S/C(=C\c3coc4cc(Br)ccc4c3=O)C2=O)cc1`, the result in series [12], in series [15], in [18], in [26], in series [29] and in [30] was Active. Moreover, the outcome in [32] and in [34] was Active. In addition, the IC50 in [13] is 8.9 µM; in series [16], greater than 10 µM; in series [19] it was 6.1 µM; in [40], greater than 10 µM; in [42], greater than 10 µM. Further, the “fold change (FC)” value in [14] was determined as 8.9; in series [24] it was 1.07; in [38] it was 1.4. The Activity is on record as 79.1% in series [17]; 2.2% in [20]; 0.98% in series [21]; 18.08% in [22]; 31.7% in [23]; 0.29% in series [25]. Moreover, the Activity in series [27] is 18.4%; in series [28], 10.9%; in series [31] it was 21.6%; in [33] it was 0.27%; in [35], 38.2%; in [36], 6.6%. Also, the Activity in series [37] is recorded as 0.3%; in series [39], 3.1%; in series [41], 1.94%. Also, the IC50 at 48 h in [43] was determined as 14.1 µM.
